Laboratory results published in PubChem BioAssay AID330 (DTP/NCI, 2004).
Where “and” joins values, the source holds several entries; their conditions need not be identical. Identical values can stand only once. Toxic doses and inconclusive results are not listed. Square brackets hold non-standard residues; d marks the D form. Peptide text beside a SMILES is read from it. * marks the point of attachment. ξ: configuration not given here. ξAsp(βξ-Me) = CC(C(=O)O)C(N)C(=O)O; X11 = CC(N*)C1NC(=O)C2CCCCN2C1=O; ξAbu(3ξ-NH2) = CC(N)C(N)C(=O)O; X10 = CCC(C)CCC/C=C/CC(=O)*

Tested on: P388 leukemia ip, CD2F1 mice, survival T/C
Assay: NCI In Vivo Anticancer Drug Screen. Data for tumor model P388 Leukemia (intraperitoneal) in CD2F1 (CDF1) mice
Conditions: endpoint: median survival time, higher = longer survival
Summary of the method: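 Mice carrying the transplanted tumor received test compound or vehicle. Survival was recorded in each group, and the value is the treated-group measurement divided by that of the vehicle-treated control group.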

[1] = dose: 12.5 mg/kg/injection, schedule: Q01DX009 (ip), vehicle: other
[2] = dose: 25.0 mg/kg/injection, schedule: Q01DX009 (ip), vehicle: other
[3] = dose: 50.0 mg/kg/injection, schedule: Q01DX009 (ip), vehicle: other
[4] = dose: 100.0 mg/kg/injection, schedule: Q01DX009 (ip), vehicle: other
[5] = dose: 50.0 mg/kg/injection, schedule: Q01DX005 (ip), vehicle: saline with Tween-80
[6] = dose: 100.0 mg/kg/injection, schedule: Q01DX005 (ip), vehicle: saline with Tween-80
[7] = dose: 200.0 mg/kg/injection, schedule: Q01DX005 (ip), vehicle: saline with Tween-80
[8] = dose: 50.0 mg/kg/injection, schedule: Q01DX009 (ip), vehicle: saline with Tween-80
[9] = dose: 100.0 mg/kg/injection, schedule: Q01DX009 (ip), vehicle: saline with Tween-80
[10] = dose: 200.0 mg/kg/injection, schedule: Q01DX009 (ip), vehicle: saline with Tween-80

With `COc1cccc2c1C(=O)c1c(O)c3c(c(O)c1C2=O)CC(O)(c1csc(C)n1)CC3O` (stereo not drawn) the T/C (dose: 1.56 mg/kg/injection, schedule: Q01DX009 (ip), vehicle: other) was 105 % of control, the T/C (dose: 3.13 mg/kg/injection, schedule: Q01DX009 (ip), vehicle: other) was 96 % of control and the T/C (dose: 6.25 mg/kg/injection, schedule: Q01DX009 (ip), vehicle: other) was 100 % of control. For the same molecule, the T/C [1] was 100 % of control, the T/C [2] was 99 % of control and 107 % of control and the T/C [3] was 108 % of control. For the same molecule, the T/C [4] was 107 % of control.

`COc1cc2c(OC)c(c1)CCCC1=CC(=O)C=C(CCC2)C1=O` was tested, and the T/C [5] was 94 % of control, the T/C (dose: 100.0 mg/kg/injection, schedule: Q01DX001 (ip), vehicle: Klucel (hydroxypropylcellulose) (HPC)) was 92 % of control and the T/C [6] was 103 % of control. The T/C (dose: 200.0 mg/kg/injection, schedule: Q01DX001 (ip), vehicle: Klucel (hydroxypropylcellulose) (HPC)) was 100 % of control, the T/C [7] was 100 % of control and the T/C (dose: 400.0 mg/kg/injection, schedule: Q01DX001 (ip), vehicle: Klucel (hydroxypropylcellulose) (HPC)) was 90 % of control.

In the case of `Clc1c2ccccc2nc2ccccc12`, the T/C [5] is reported as 98 % of control, the T/C [6] is reported as 91 % of control and the T/C [7] is reported as 98 % of control.

`CSC(=CC(=O)c1ccccc1)SC` was tested, and the T/C (dose: 12.5 mg/kg/injection, schedule: Q01DX009 (ip), vehicle: saline with Tween-80) was 104 % of control, the T/C (dose: 25.0 mg/kg/injection, schedule: Q01DX009 (ip), vehicle: saline with Tween-80) was 105 % of control and the T/C [8] was 114 % of control. The T/C [9] was 110 % of control.

With `CC(C)C1N(N2C(=O)CS(=O)(=O)C2C(C)C)C(=O)CS1(=O)=O` (stereo not drawn) the T/C [5] was 98 % of control, the T/C [6] was 101 % of control and the T/C [7] was 102 % of control.

For `CCOC(=O)/C=C/C(=O)NNS(=O)(=O)CCC(NC(=O)OCc1ccccc1)C(=O)OCc1ccccc1` (stereo not drawn), the T/C [1] was 92 % of control, the T/C [2] was 101 % of control and the T/C [3] was 104 % of control. The T/C [4] was 93 % of control and the T/C (dose: 200.0 mg/kg/injection, schedule: Q01DX009 (ip), vehicle: other) was 86 % of control.

`O=C1C2(Cl)C3CCC4C5CCC3C1(Cl)C5(Cl)C42Cl` (stereo not drawn) was tested, and the T/C (dose: 100.0 mg/kg/injection, schedule: Q04DX002 (ip), vehicle: saline with Tween-80) was 107 % of control and the T/C (dose: 200.0 mg/kg/injection, schedule: Q04DX002 (ip), vehicle: saline with Tween-80) was 100 % of control.

For `C=C1C(=O)OC2C[C@@]3(C)CC(O)C[C@H](C)C3=CC12` (stereo partly drawn), the T/C (dose: 10.0 mg/kg/injection, schedule: Q01DX009 (ip), vehicle: distilled water + Tween-80 + alcohol) was 103 % of control, the T/C (dose: 20.0 mg/kg/injection, schedule: Q01DX009 (ip), vehicle: distilled water + Tween-80 + alcohol) was 111 % of control and the T/C (dose: 37.5 mg/kg/injection, schedule: Q01DX009 (ip), vehicle: distilled water + Tween-80 + alcohol) was 120 % of control. The T/C (dose: 40.0 mg/kg/injection, schedule: Q01DX009 (ip), vehicle: distilled water + Tween-80 + alcohol) was 117 % of control and the T/C (dose: 75.0 mg/kg/injection, schedule: Q01DX009 (ip), vehicle: distilled water + Tween-80 + alcohol) was 123 % of control.

`COc1ccc(C(=O)C(CN2CCCC2)CN2CCCC2)cc1` was tested, and the T/C (dose: 7.5 mg/kg/injection, schedule: Q01DX005 (ip), vehicle: saline) was 111 % of control, the T/C (dose: 7.5 mg/kg/injection, schedule: Q01DX009 (ip), vehicle: saline) was 112 % of control and the T/C (dose: 15.0 mg/kg/injection, schedule: Q01DX004 (ip), vehicle: saline) was 122 % of control. The T/C (dose: 15.0 mg/kg/injection, schedule: Q01DX005 (ip), vehicle: saline) was 121 % of control, the T/C (dose: 15.0 mg/kg/injection, schedule: Q01DX009 (ip), vehicle: saline) was 123 % of control and the T/C (dose: 30.0 mg/kg/injection, schedule: Q01DX004 (ip), vehicle: saline) was 115 % of control. The T/C (dose: 60.0 mg/kg/injection, schedule: Q01DX004 (ip), vehicle: saline) was 108 % of control.

With `O=c1c(O)cccn1C1OC(CO)C(O)C1O` (stereo not drawn) the T/C (dose: 50.0 mg/kg/injection, schedule: Q01DX005 (ip), vehicle: saline) was 99 % of control and 97 % of control and 104 % of control, the T/C (dose: 100.0 mg/kg/injection, schedule: Q01DX005 (ip), vehicle: saline) was 99 % of control and 101 % of control and 117 % of control and the T/C (dose: 200.0 mg/kg/injection, schedule: Q01DX005 (ip), vehicle: saline) was 104 % of control [middle of 4 runs]. For the same molecule, the T/C (dose: 400.0 mg/kg/injection, schedule: Q01DX005 (ip), vehicle: saline) was 102 % of control and 112 % of control and 87 % of control.

`CC(=O)O[C@H]1C(=O)[C@]2(C)[C@@H](OC(C)=O)CC3OC[C@@]3(OC(C)=O)[C@H]2[C@H](OC(=O)c2ccccc2)[C@]2(O)C[C@H](OC(=O)[C@H](OC(C)=O)[C@@H](NC(=O)c3ccccc3)c3ccccc3)C(C)=C1C2(C)C` (stereo partly drawn) was tested, and the T/C (dose: 2.5 mg/kg/injection, schedule: Q01DX005 (ip), vehicle: DMSO) was 100 % of control, the T/C (dose: 5.0 mg/kg/injection, schedule: Q01DX005 (ip), vehicle: DMSO) was 102 % of control and 118 % of control and the T/C (dose: 10.0 mg/kg/injection, schedule: Q01DX005 (ip), vehicle: DMSO) was 102 % of control and 124 % of control. The T/C (dose: 12.5 mg/kg/injection, schedule: Q01DX005 (ip), vehicle: DMSO) was 107 % of control, the T/C (dose: 20.0 mg/kg/injection, schedule: Q01DX005 (ip), vehicle: DMSO) was 121 % of control and the T/C (dose: 25.0 mg/kg/injection, schedule: Q01DX005 (ip), vehicle: DMSO) was 120 % of control. The T/C (dose: 40.0 mg/kg/injection, schedule: Q01DX005 (ip), vehicle: DMSO) was 178 % of control, the T/C (dose: 50.0 mg/kg/injection, schedule: Q01DX005 (ip), vehicle: DMSO) was 124 % of control and the T/C (dose: 100.0 mg/kg/injection, schedule: Q01DX005 (ip), vehicle: DMSO) was 120 % of control.

In the case of `O=C(O)C1Cc2c([nH]c3ccccc23)C2CCC(=O)N12` (stereo not drawn), the T/C (dose: 25.0 mg/kg/injection, schedule: Q04DX003 (ip), vehicle: suspension in saline) is reported as 106 % of control, the T/C (dose: 50.0 mg/kg/injection, schedule: Q04DX003 (ip), vehicle: suspension in saline) is reported as 96 % of control and the T/C (dose: 100.0 mg/kg/injection, schedule: Q04DX003 (ip), vehicle: suspension in saline) is reported as 98 % of control. For the same molecule, the T/C (dose: 200.0 mg/kg/injection, schedule: Q04DX003 (ip), vehicle: suspension in saline) was 98 % of control.

With `CCC(=O)c1c(C)oc2ccc(O)cc12` the T/C (dose: 25.0 mg/kg/injection, schedule: Q04DX002 (ip), vehicle: Klucel (hydroxypropylcellulose) (HPC)) was 94 % of control, the T/C (dose: 50.0 mg/kg/injection, schedule: Q04DX002 (ip), vehicle: Klucel (hydroxypropylcellulose) (HPC)) was 89 % of control and the T/C (dose: 100.0 mg/kg/injection, schedule: Q04DX002 (ip), vehicle: Klucel (hydroxypropylcellulose) (HPC)) was 91 % of control. For the same molecule, the T/C (dose: 200.0 mg/kg/injection, schedule: Q04DX002 (ip), vehicle: Klucel (hydroxypropylcellulose) (HPC)) was 90 % of control and the T/C (dose: 400.0 mg/kg/injection, schedule: Q04DX002 (ip), vehicle: Klucel (hydroxypropylcellulose) (HPC)) was 90 % of control.

For `CC1(C)O[S+](c2ccccc2)c2ccccc21` (stereo not drawn), the T/C (dose: 50.0 mg/kg/injection, schedule: Q01DX009 (ip), vehicle: Klucel (hydroxypropylcellulose) (HPC)) was 102 % of control, the T/C (dose: 100.0 mg/kg/injection, schedule: Q01DX009 (ip), vehicle: Klucel (hydroxypropylcellulose) (HPC)) was 107 % of control and the T/C (dose: 200.0 mg/kg/injection, schedule: Q01DX009 (ip), vehicle: Klucel (hydroxypropylcellulose) (HPC)) was 108 % of control.

`c1ccc2c(c1)ccc1c(-c3ccncc3)n[nH]c12` was tested, and the T/C [8] was 99 % of control, the T/C [9] was 88 % of control and the T/C [10] was 87 % of control.

In the case of `CCC(C)CCC/C=C/CC(=O)NC(CC(=O)O)C(=O)NC(C(=O)NC(CC(=O)O)C(=O)NCC(=O)NC(CC(=O)O)C(=O)NCC(=O)NC(C(=O)NC(C(=O)N1CCCC1C(=O)NC(C)C1NC(=O)C2CCCCN2C1=O)C(C)C)C(C)N)C(C)C(=O)O` (stereo not drawn) (X10-D[ξAsp(βξ-Me)]DGDG[ξAbu(3ξ-NH2)]VP-X11; configuration not given here), the T/C (dose: 25.0 mg/kg/injection, schedule: Q01DX009 (ip), vehicle: saline + alcohol) is reported as 103 % of control, the T/C (dose: 50.0 mg/kg/injection, schedule: Q01DX009 (ip), vehicle: saline + alcohol) is reported as 103 % of control and the T/C (dose: 100.0 mg/kg/injection, schedule: Q01DX009 (ip), vehicle: saline + alcohol) is reported as 107 % of control and 88 % of control.

In the case of `Nc1nc2ccccc2c2c1C(=O)NC2=O`, the T/C [8] is reported as 104 % of control, the T/C [9] is reported as 86 % of control and the T/C [10] is reported as 90 % of control.

`COC(COC(=O)N1CCN(C=O)CC1)C1=C(N2CC2)C(=O)C(C)=C(N2CC2)C1=O` (stereo not drawn) was tested, and the T/C (dose: 3.13 mg/kg/injection, schedule: Q01DX005 (ip), vehicle: saline) was 177 % of control.

`NS(=O)(=O)c1nc2nc[nH]c(=O)c2[nH]1` was tested, and the T/C [5] was 100 % of control, the T/C [6] was 106 % of control and the T/C [7] was 101 % of control.

`CS(=O)(=O)Nc1ccc(NC(=O)c2c3ccccc3nc3ccccc23)cc1` was tested, and the T/C (dose: 12.5 mg/kg/injection, schedule: Q01DX005 (ip), vehicle: saline with Tween-80) was 103 % of control, the T/C (dose: 25.0 mg/kg/injection, schedule: Q01DX005 (ip), vehicle: saline with Tween-80) was 99 % of control and the T/C [5] was 109 % of control and 110 % of control.
